Laboratory results as given in the supplement of paper PMC11451515.

Columns and labels:
Conditions in all cases: 48 h
NOMO1 [1] = assay: cell viability relative to DMSO control; higher = less cytotoxic
Method in brief: (§1)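 Cells were incubated for 48 h at 37°C before CellTiter-Glo One luminescence was read. The cells were NOMO1 or SEM (500 cells/well) or P12-Ichikawa (1000 cells/well) leukemia cells, adapted for at least four passages in each medium and seeded in 1536-well plates (5 μl). Dosing used library compounds in DMSO applied by pin over 11 threefold points, 47 μM to 0.79 nM. Viability is the per-plate percentage of DMSO wells, with cell-free wells as background.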

P12-Ichikawa [2] = assay: as above
Method in brief: as §1

SEM cells = assay: as above
Method in brief: as §1

NOMO1 [3] = assay: AUC of viability dose-response curve (% viability x log10 dose units); higher = less sensitive
Method in brief: (§2)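 Area under the curve was integrated by trapezoidal rule from a log-logistic fit of normalised viability, with curves exceeding full viability scaled and quality-control failures removed. The fit had four parameters over log10 doses. Viability came from CellTiter-Glo One luminescence, normalised per plate to DMSO and cell-free wells, after leukemia cells adapted to each medium (500 or 1000 cells/well, 1536-well plates) were exposed to library compounds in DMSO for 48 h at 37°C. The 11 threefold doses ran from 47 μM to 0.79 nM.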

P12-Ichikawa [4] = assay: as above
Method in brief: as §2

O=C(Cc1ccc(-c2ccc(OCCN3CCOCC3)cc2)cn1)NCc1ccccc1
cell viability [%]
Conditions | NOMO1 [1] | P12-Ichikawa [2] | SEM cells
HPLM + 10% dialyzed FBS, 0.000781 µM | 118 | 107 | 96
HPLM + 10% dialyzed FBS, 0.00234 µM | 102 | 113 | 95.9
HPLM + 10% dialyzed FBS, 0.00702 µM | 123 | 114 | 106
HPLM + 10% dialyzed FBS, 0.0211 µM | 111 | 85.6 | 67.9
HPLM + 10% dialyzed FBS, 0.0632 µM | 43.7 | 36.1 | 28.9
HPLM + 10% dialyzed FBS, 0.19 µM | 41.9 | 17.3 | 22.9
HPLM + 10% dialyzed FBS, 0.569 µM | 43.8 | 14 | 21.6
HPLM + 10% dialyzed FBS, 1.71 µM | 53.7 | 13.2 | 20.8
HPLM + 10% dialyzed FBS, 5.12 µM | 52.5 | 10.3 | 18.9
HPLM + 10% dialyzed FBS, 15.4 µM | 56.6 | 9.64 | 15.2
HPLM + 10% dialyzed FBS, 46.1 µM | 40.6 | 11.6 | 10.5
RPMI 5 mM glucose + 10% FBS, 0.000781 µM | 124 | 114 | 79.9
RPMI 5 mM glucose + 10% FBS, 0.00234 µM | 122 | 114 | 84.5
RPMI 5 mM glucose + 10% FBS, 0.00702 µM | 117 | 123 | 87
RPMI 5 mM glucose + 10% FBS, 0.0211 µM | 128 | 97 | 57.9
RPMI 5 mM glucose + 10% FBS, 0.0632 µM | 71.9 | 40 | 18.9
RPMI 5 mM glucose + 10% FBS, 0.19 µM | 27.1 | 25.9 | 12.9
RPMI 5 mM glucose + 10% FBS, 0.569 µM | 33.2 | 15.6 | 14.8
RPMI 5 mM glucose + 10% FBS, 1.71 µM | 34.1 | 15.1 | 13.6
RPMI 5 mM glucose + 10% FBS, 5.12 µM | 32.5 | 10.4 | 12.2
RPMI 5 mM glucose + 10% FBS, 15.4 µM | 31.3 | 8.04 | 4.65
RPMI 5 mM glucose + 10% FBS, 46.1 µM | 33.7 | 8.38 | 2.89
RPMI 5 mM glucose + 10% dialyzed FBS, 0.000781 µM | 118 | 122 | 93.6
RPMI 5 mM glucose + 10% dialyzed FBS, 0.00234 µM | 108 | 118 | 90.8
RPMI 5 mM glucose + 10% dialyzed FBS, 0.00702 µM | 124 | 119 | 93.8
RPMI 5 mM glucose + 10% dialyzed FBS, 0.0211 µM | 112 | 112 | 70.8
RPMI 5 mM glucose + 10% dialyzed FBS, 0.0632 µM | 62.5 | 33.3 | 30.3
RPMI 5 mM glucose + 10% dialyzed FBS, 0.19 µM | 35.8 | 35 | 19.1
RPMI 5 mM glucose + 10% dialyzed FBS, 0.569 µM | 35.2 | 22.9 | 22.4
RPMI 5 mM glucose + 10% dialyzed FBS, 1.71 µM | 41.7 | 22.2 | 20
RPMI 5 mM glucose + 10% dialyzed FBS, 5.12 µM | 40.6 | 13.6 | 17.3
RPMI 5 mM glucose + 10% dialyzed FBS, 15.4 µM | 33.4 | 11.6 | 9.97
RPMI 5 mM glucose + 10% dialyzed FBS, 46.1 µM | 42.7 | 16.6 | 7.04

AUC of viability dose-response curve
Conditions | HPLM + 10% dialyzed FBS | RPMI 5 mM glucose + 10% FBS | RPMI 5 mM glucose + 10% dialyzed FBS
NOMO1 [3] | 294 | 263 | 277
P12-Ichikawa [4] | 200 | 205 | 222
